{
  "source": "patent US11103488B2",
  "about": "“Methods of treating autoimmune, respiratory and inflammatory disorders by inhalation of roflumilast N-oxide” (Incozen Therapeutics Pvt. Ltd., priority 2013, dated 2021)",
  "key": {"[1]": {"experiment": "Lung microsome metabolic stability, rat", "format": "in vitro ADME", "conditions": "rat lung microsomes, 1 μM test item, 60 minutes, NADPH", "experimental": "(§1) Metabolic stability studies were conducted using rat, dog and human lung microsomes. The protocol for the studies with rat, dog, and human lung microsomes (from Xenotech, USA) is provided below.\n(§2) 0.4 mg protein was preincubated with 2 mM NADPH (cofactor) in phosphate buffer (pH˜7.4) for 15 minutes at […] and then added with 1 μM test item and incubated further for 60 minutes in triplicate. The reaction mixture was terminated with methanol containing an internal standard and centrifuged further to analyze the test item remaining in the supernatant by LC-MS/MS. The percent parent compound remaining was calculated in comparison with similar samples terminated at 0 minutes."}, "[2]": {"experiment": "Lung microsome metabolic stability, dog", "format": "in vitro ADME", "conditions": "dog lung microsomes, 1 μM test item, 60 minutes, NADPH", "experimental": "as §1, §2"}, "[3]": {"experiment": "Lung microsome metabolic stability, human", "format": "in vitro ADME", "conditions": "1 μM test item, 60 minutes, NADPH", "experimental": "as §1, §2"}, "[4]": {"system": "neutrophil infiltration (LPS-induced neutrophilia in BALF)", "experiment": "Lipopolysaccharide (LPS) induced pulmonary neutrophilia", "format": "in vivo, female Sprague-Dawley rat", "conditions": "for ED50: Rattus norvegicus, Neutrophil, read-out: 50% inhibition (ED50) dose, neutrophil infiltration", "experimental": "Roflumilast was prepared as a suspension in a suitable vehicle for oral administration. For intratracheal administration, roflumilast or roflumilast N-oxide was prepared as a dry powder mixture and administered by using a dry powder Insufflator (Penn-Century, USA) Animals were anaesthetized with ketamine and LPS solution was administered intratracheally one hour after roflumilast (at a dose of 0.3, 1, 3, and 10 mg/kg orally), or 30 minutes after roflumilast (at a dose of 10, 30 and 100 μg/kg i.t) or roflumilast N-oxide administration (at a dose of 10, 30 and 100 μg/kg, i.t). 6 hours after LPS instillation, animals were exsanguinated under anaesthesia, and then trachea were cannulated and the lungs were lavaged with 5-ml aliquots of heparinised PBS (1 unit/ml) four times through tracheal cannula (total volume 20 ml). BAL (bronchoalveolar lavage) fluid was stored at 2-8° C. until assayed for total cell and differential leukocyte count. Bronchioalveolar fluid was centrifuged (500×g for 10 minutes) and the resulting cell pellet was resuspended in 0.5 ml of heparinized saline. The total number of white blood cells were determined in BAL fluid using a blood cell counter and were adjusted to 1×10^6 cell/ml. Differential cell count was calculated manually. One hundred microliters of the cell suspension was centrifuged using cytospin 3 to prepare a cell smear. The cell smear was stained with a blood staining solution for differentiation and slides were microscopically observed to identify eosinophil according to their morphological characteristics. The number of each cell type among 300 white blood cells in the cell smear was determined and expressed as a percentage. The total number of neutrophils in each BAL fluid was calculated.\nRoflumilast and roflumilast N-oxide were administered intratracheally (i.t) at doses of 100, 30, and 10 μg/kg as 1:200; 1:500; and 1:1000 drug:lactose blends, respectively."}, "[5]": {"system": "macrophage infiltration", "experiment": "Acute cigarette smoke induced cell infiltration, macrophages", "format": "in vivo, female Balb/c mice", "conditions": "for Percent inhibition in macrophage infiltration: oral, day 1 to day 4", "experimental": "(§3) Animals were acclimatized for seven days prior to the start of the experiment. The animals were randomly distributed to various groups based on their body weight. For oral administration of roflumilast and for intranasal administration of roflumilast N-oxide, roflumilast or roflumilast N-oxide were prepared as a suspension in a suitable vehicle. On day 1, mice were administered roflumilast N-oxide or roflumilast and after 1 hour, the animals were placed in a whole body exposure box. On day 1 and day 2, the mice were exposed to the mainstream smoke of 6 cigarettes, and 8 cigarettes on day 3 and day 4. Exposure to the smoke of each cigarette lasted for 10 minutes (cigarettes were completely burned in the first two minutes and followed by an air flow with animal ventilator, then 20 minutes exposure to fresh room air). After every second cigarette an additional break of 20 minutes with exposure to fresh room air was conducted. Control animals were exposed to room air chamber. From day 1 to day 4, the animals were administered roflumilast N-oxide or roflumilast. On day 5, 24 hours after the last cigarette smoke (CS) exposure, the animals were exsanguinated under anaesthesia, the trachea were cannulated and the lungs were lavaged with 0.5-ml aliquots of heparinised PBS (1 unit/ml) four times through tracheal cannula (total volume 2 ml). Bronchioalveolar (BAL) collected was stored at 2-8° C. until assayed for total cell and differential leukocyte count. BAL fluid was centrifuged (500×g for 10 minutes) and the resulting cell pellet was resuspended in 0.5 ml of heparinised saline. The total number of white blood cells was determined in BAL fluid and adjusted to 1×10^6 cell/ml. Differential cell count was calculated manually by diff-quick staining. Forty microliters of the cell suspension was centrifuged using cytospin 3 to prepare a cell smear. The cell smear was stained with a blood staining solution for differentiation and microscopically observed to identify cell type according to their morphological characteristics. The number of each cell type among 300 white blood cells in the cell smear were determined and expressed as a percentage, and the number of neutrophils and macrophages in each BAL fluid were calculated.\n(§4) Roflumilast and roflumilast N-oxide as a suspension in polysorbate 80 (1% v/v) and methyl cellulose (MC) (0.5% w/v) were used for oral and intranasal administration respectively."}, "[6]": {"system": "neutrophil infiltration", "experiment": "Acute cigarette smoke induced cell infiltration, neutrophils", "format": "in vivo, female Balb/c mice", "conditions": "for Percent inhibition in neutrophil infiltration: oral, day 1 to day 4", "experimental": "as §3, §4"}, "[7]": {"experiment": "7-day repeat dose safety study", "format": "in vivo, Wistar Rats", "experimental": "In order to determine the safety of roflumilast N-oxide by inhalation compared to roflumilast by oral administration, a 7- and 14-day repeat dose safety study was conducted according to the protocol given in Table 5 below."}, "[8]": {"conditions": "roflumilast n = 4438; count, second figure in brackets; cited from earlier work"}},
  "note": "Like-named read-outs stand apart in the source and are kept apart here.",
  "data": [
    {"smiles": "O=C(Nc1c(Cl)cncc1Cl)c1ccc(OC(F)F)c(OCC2CC2)c1", "note": "[Roflumilast]", "values": [
      {"measurement": "Percent Parent Compound Remaining, Rat", "setting": "[1]", "result": 97.1, "unit": "%"},
      {"measurement": "Percent Parent Compound Remaining, Dog", "setting": "[2]", "result": 97.4, "unit": "%"},
      {"measurement": "Percent Parent Compound Remaining, Human Non Smoker", "setting": "[3]; human non smoker lung microsomes", "result": 99.8, "unit": "%"},
      {"measurement": "Percent Parent Compound Remaining, Human Smoker", "setting": "[3]; human smoker lung microsomes", "result": 98.8, "unit": "%"},
      {"measurement": "ED50", "setting": "[4]; inhaled or nasal, intratracheal administration", "result": 0.026, "unit": "mg/kg"},
      {"measurement": "ED50", "setting": "[4]; oral administration", "result": 1.8, "unit": "mg/kg"},
      {"measurement": "Percent inhibition in neutrophil infiltration", "setting": "[4]; intratracheal dry powder, 10 μg/kg, 30 minutes before LPS", "result": 31.76, "unit": "%"},
      {"measurement": "Percent inhibition in neutrophil infiltration", "setting": "[4]; intratracheal dry powder, 30 μg/kg, 30 minutes before LPS", "result": 60.47, "unit": "%"},
      {"measurement": "Percent inhibition in neutrophil infiltration", "setting": "[4]; intratracheal dry powder, 100 μg/kg, 30 minutes before LPS", "result": 64.40, "unit": "%"},
      {"measurement": "Percent inhibition in neutrophil infiltration", "setting": "[4]; oral, 0.3 mg/kg, one hour before LPS, BAL 6 hours after LPS", "result": "−7.89", "unit": "%"},
      {"measurement": "Percent inhibition in neutrophil infiltration", "setting": "[4]; oral, 1 mg/kg, one hour before LPS, BAL 6 hours after LPS", "result": 43.46, "unit": "%"},
      {"measurement": "Percent inhibition in neutrophil infiltration", "setting": "[4]; oral, 3 mg/kg, one hour before LPS, BAL 6 hours after LPS", "result": 68.02, "unit": "%"},
      {"measurement": "Percent inhibition in neutrophil infiltration", "setting": "[4]; oral, 10 mg/kg, one hour before LPS, BAL 6 hours after LPS", "result": 92.21, "unit": "%"},
      {"measurement": "ED50", "setting": "[5]; Mus musculus, Macrophage, oral administration, read-out: 50% inhibition (ED50) dose, macrophage infiltration", "result": 3.5, "unit": "mg/kg"},
      {"measurement": "Percent inhibition in macrophage infiltration", "setting": "[5]; 1 mg/kg (b.i.d. per FIG. 4)", "result": 22.2, "unit": "%"},
      {"measurement": "Percent inhibition in macrophage infiltration", "setting": "[5]; 3 mg/kg (b.i.d. per FIG. 4)", "result": 51.00, "unit": "%"},
      {"measurement": "Percent inhibition in macrophage infiltration", "setting": "[5]; 10 mg/kg (b.i.d. per FIG. 4)", "result": 69.11, "unit": "%"},
      {"measurement": "ED50", "setting": "[6]; Mus musculus, Neutrophil, oral administration, read-out: 50% inhibition (ED50) dose, neutrophil infiltration", "result": 1.75, "unit": "mg/kg"},
      {"measurement": "Percent inhibition in neutrophil infiltration", "setting": "[6]; 1 mg/kg (b.i.d. per FIG. 4)", "result": 70.85, "unit": "%"},
      {"measurement": "Percent inhibition in neutrophil infiltration", "setting": "[6]; 3 mg/kg (b.i.d. per FIG. 4)", "result": 73.69, "unit": "%"},
      {"measurement": "Percent inhibition in neutrophil infiltration", "setting": "[6]; 10 mg/kg (b.i.d. per FIG. 4)", "result": 83.01, "unit": "%"},
      {"measurement": "MORTALITY", "setting": "[7]; Oral, 10 mg/Kg/day, 7 days", "result": 1, "unit": "M animal died on day 7"},
      {"measurement": "Multiple of ED50 at which toxic", "setting": "[7]; Wistar, rat, in vivo, 7 days", "result": 5.5, "unit": "fold"},
      {"measurement": "Overall safety in repeat dose study", "setting": "[7]; rat, in vivo, po, 10 mg/kg", "result": "showed significant toxicity"},
      {"measurement": "CLINICAL CHEMISTRY", "setting": "[7]; rat, in vivo, po, 10 mg/kg/day", "result": "Yes, reduced serum"},
      {"measurement": "CLINICAL SIGNS", "setting": "[7]; rat, in vivo, po, 10 mg/kg/day", "result": "Abnormal clinical"},
      {"measurement": "GROSS PATHOLOGY", "setting": "[7]; rat, in vivo, po, 10 mg/kg/day", "result": "Yes, treatment related"},
      {"measurement": "HEMATOLOGY", "setting": "[7]; rat, in vivo, po, 10 mg/kg/day", "result": "Yes, elevated WBC"},
      {"measurement": "AEs: Back pain", "setting": "[8]", "result": "142 (3.2)"},
      {"measurement": "AEs: Decreased appetite", "setting": "[8]", "result": "91 (2.1)"},
      {"measurement": "AEs: Diarrhoea", "setting": "[8]", "result": "420 (9.5)"},
      {"measurement": "AEs: Dizziness", "setting": "[8]", "result": "92 (2.1)"},
      {"measurement": "AEs: Headache", "setting": "[8]", "result": "195 (4.4)"},
      {"measurement": "AEs: Influenza", "setting": "[8]", "result": "124 (2.8)"},
      {"measurement": "AEs: Insomnia", "setting": "[8]", "result": "105 (2.4)"},
      {"measurement": "AEs: Nausea", "setting": "[8]", "result": "209 (4.7)"},
      {"measurement": "AEs: Weight loss", "setting": "[8]", "result": "331 (7.5)"}
    ]}
  ]
}
